Assay results from PubChem BioAssay (NCI).
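48-hour exposure; five concentrations; linearly interpolated endpoints. TGI is the concentration that stops growth completely.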

How the values were obtained:
Experiment in all cases: NCI tumour cell line growth inhibition, 48 h
[1] = test system: SW-620 colon
[2] = test system: RXF 393 renal
[3] = test system: SF-268 CNS
[4] = test system: COLO 205 colon
[5] = test system: U251 CNS
[6] = test system: UO-31 renal
[7] = test system: MALME-3M melanoma
[8] = test system: OVCAR-8 ovarian
[9] = test system: PC-3 prostate
[10] = test system: BT-549 breast
[11] = test system: EKVX NSCLC
[12] = test system: RPMI-8226 leukemia
[13] = test system: A498 renal
[14] = test system: HT29 colon
[15] = test system: LOX IMVI melanoma
[16] = test system: IGROV1 ovarian
[17] = test system: HCC-2998 colon
[18] = test system: SR leukemia
[19] = test system: MCF7 breast
[20] = test system: SK-MEL-5 melanoma
[21] = test system: MDA-MB-435
[22] = test system: SK-MEL-28 melanoma
[23] = test system: 786-0 renal
[24] = test system: NCI-H460 lung
[25] = test system: HOP-62 NSCLC
[26] = test system: M14 melanoma
[27] = test system: HCT-15 colon
[28] = test system: T-47D breast
[29] = test system: SK-MEL-2 melanoma
[30] = test system: ACHN renal
[31] = test system: UACC-257 melanoma
[32] = test system: SN12C renal
[33] = test system: OVCAR-5 ovarian
[34] = test system: MDA-N
[35] = test system: OVCAR-4 ovarian
[36] = test system: HS 578T breast
[37] = test system: MOLT-4 leukemia
[38] = test system: SNB-19 CNS
[39] = test system: CCRF-CEM leukemia
[40] = test system: HCT-116 colon
[41] = test system: SF-295 CNS
[42] = test system: NCI-H23 lung
[43] = test system: TK-10 renal
[44] = test system: CAKI-1 renal
[45] = test system: NCI-H522 lung
[46] = test system: NCI/ADR-RES ovarian
[47] = test system: K-562 leukemia
[48] = test system: A549 NSCLC
[49] = test system: MDA-MB-231 breast
[50] = test system: OVCAR-3 ovarian
[51] = test system: SNB-75 CNS
[52] = test system: DU-145 prostate
[53] = test system: SK-OV-3 ovarian
[54] = test system: KM12 colon
[55] = test system: HL-60(TB) leukemia
[56] = test system: UACC-62 melanoma
[57] = test system: SF-539 CNS
[58] = test system: NCI-H226 lung
[59] = test system: HOP-92 NSCLC

`N#CC(c1ccccc1)(c1ccccc1)[C@@H](c1ccccc1)[C@H](Cc1ccccc1)NS(=O)(=O)c1ccccc1` was tested, and the TGI [1] was greater than 100 µM, the TGI [2] was greater than 100 µM and the TGI [3] was greater than 100 µM. The TGI [4] was greater than 100 µM, the TGI [5] was greater than 100 µM and the TGI [6] was greater than 100 µM. The TGI [7] was greater than 100 µM, the TGI [8] was greater than 100 µM and the TGI [9] was greater than 100 µM. It also gave a TGI [10] greater than 100 µM, a TGI [11] greater than 100 µM and a TGI [12] greater than 100 µM. For the same compound, the TGI [13] was greater than 100 µM, the TGI [14] was greater than 100 µM and the TGI [15] was greater than 100 µM. The TGI [16] was greater than 100 µM, the TGI [17] was greater than 100 µM and the TGI [18] was greater than 100 µM. The TGI [19] was greater than 100 µM, the TGI [20] was greater than 100 µM and the TGI [21] was greater than 100 µM. The TGI [22] was greater than 100 µM, the TGI [23] was greater than 100 µM and the TGI [24] was greater than 100 µM. The TGI [25] was greater than 100 µM, the TGI [26] was greater than 100 µM and the TGI [27] was greater than 100 µM. It also gave a TGI [28] greater than 100 µM, a TGI [29] greater than 100 µM and a TGI [30] greater than 100 µM. The TGI [31] was greater than 100 µM, the TGI [32] was greater than 100 µM and the TGI [33] was greater than 100 µM. It also gave a TGI [34] greater than 100 µM, a TGI [35] greater than 100 µM and a TGI [36] greater than 100 µM. It also gave a TGI [37] greater than 100 µM, a TGI [38] greater than 100 µM and a TGI [39] greater than 100 µM. It also gave a TGI [40] greater than 100 µM, a TGI [41] greater than 100 µM and a TGI [42] greater than 100 µM. The TGI [43] was greater than 100 µM, the TGI [44] was greater than 100 µM and the TGI [45] was greater than 100 µM. The TGI [46] was greater than 100 µM, the TGI [47] was greater than 100 µM and the TGI [48] was greater than 100 µM. It also gave a TGI [49] greater than 100 µM, a TGI [50] greater than 100 µM and a TGI [51] greater than 100 µM. The TGI [52] was greater than 100 µM, the TGI [53] was greater than 100 µM and the TGI [54] was greater than 100 µM. The TGI [55] was greater than 100 µM, the TGI [56] was greater than 100 µM and the TGI [57] was greater than 100 µM.
For `CC1OC(OC2C(O[C@@H]3C[C@@H]4CC[C@@H]5[C@H](CC[C@]6(C)[C@@H]7[C@H](C[C@@H]56)O[C@]5(CC[C@@H](C)CO5)[C@H]7C)[C@@]4(C)C[C@H]3O)OC(CO)C(OC3OC(CO)C(O)C(O)C3O)C2O)C(O)C(O)C1O` (some centres not stated), the TGI [1] was 3.04 µM, the TGI [2] was 3.53 µM and the TGI [3] was 3.51 µM. It also gave a TGI [4] of 3.12 µM, a TGI [5] of 3.2 µM and a TGI [6] of 3.81 µM. It also gave a TGI [7] of 2.57 µM, a TGI [8] of 2.9 µM and a TGI [9] of 2.85 µM. For the same compound, the TGI [58] was 3.25 µM, the TGI [10] was 4.44 µM and the TGI [11] was 2.91 µM. For the same compound, the TGI [12] was 11.3 µM, the TGI [13] was 3.1 µM and the TGI [14] was 2.88 µM. The TGI [16] was 2.39 µM, the TGI [19] was 3.65 µM and the TGI [20] was 2.89 µM. For the same compound, the TGI [59] was 5.16 µM, the TGI [21] was 3.16 µM and the TGI [22] was 3.13 µM. For the same compound, the TGI [23] was 3.32 µM, the TGI [24] was 4.14 µM and the TGI [25] was 3.22 µM. For the same compound, the TGI [26] was 3.07 µM, the TGI [27] was 4.66 µM and the TGI [28] was 11.2 µM. The TGI [29] was 3.28 µM, the TGI [30] was 3.18 µM and the TGI [31] was 3.3 µM. The TGI [32] was 3.05 µM, the TGI [33] was 3.12 µM and the TGI [34] was 3.37 µM. It also gave a TGI [35] of 4.76 µM, a TGI [36] of 4.38 µM and a TGI [37] of 3.67 µM. For the same compound, the TGI [38] was 3.66 µM, the TGI [39] was 3.72 µM and the TGI [40] was 13.1 µM. For the same compound, the TGI [41] was 2.92 µM, the TGI [42] was 4.12 µM and the TGI [44] was 3.35 µM. For the same compound, the TGI [45] was 2.4 µM, the TGI [46] was 3.88 µM and the TGI [47] was 58.1 µM. The TGI [48] was 3.02 µM, the TGI [49] was 3.39 µM and the TGI [50] was 3.04 µM. It also gave a TGI [51] of 5.76 µM, a TGI [52] of 4.29 µM and a TGI [53] of 3.17 µM. For the same compound, the TGI [54] was 4.49 µM, the TGI [55] was 3.83 µM and the TGI [56] was 3.62 µM. The TGI [57] was 3.16 µM.
